Results taken from paper PMC2801521, “Correctness of Protein Identifications of Bacillus subtilis Proteome with the Indication on Potential False Positive Peptides Supported by Predictions of Their Retention Times” (Journal of Biomedicine and Biotechnology, 2009).

Experiment: Experimental gradient RP-LC retention time of peptides (LC-ESI-MS/MS)
Type: physicochemical
Conditions: Table 1, model peptides; gradient RP-LC, XTerra MS C18 3.5 μm 2.1 × 100 mm, 0-60% ACN with 0.1% TFA, linear 90 min, 200 μL/min, 20°C, ESI-MS/MS, at peak intensity maximum
Experimental: The chromatographic analysis was performed on C-18 analytical column: XTerra MS C18 3.5 μm (2.1 × 100 mm) column (Waters, Milford, MA, USA).
The mobile phase consisted of two solvents (A and B) mixed on-line. Solvent A was 0.1% aqueous (water was MS-grade) solution of trifluoroacetic acid (TFA) (Sigma-Aldrich, Steinheim, Germany) and solvent B was acetonitrile (ACN) (MS-grade, Sigma-Aldrich, Steinheim, Germany) containing 0.1% TFA. The applied linear gradient time was 90 min, from 0% B to 60% B. The flow rate was 200 μL/min. The injection volume was 10 μL. The LC-MS apparatus was equipped with thermostated column oven and surveyor autosampler controlled at 20°C (Thermo Finnigan, San Jose, CA, USA), a quaternary gradient Surveyor MS pump (Thermo Finnigan, San Jose, CA, USA) with a diode array detection (DAD) system, and LTQ linear ion trap MS system with ESI ion source controlled by Xcalibur software 1.4 (Thermo Finnigan, San Jose, CA, USA).
The MS/MS analysis was performed on Finnigan LTQ instrument (Thermo Finnigan, San Jose, CA, USA). Mass spectra were generated in positive ion mode under constant instrumental conditions: source voltage 4.62 kV, capillary voltage 40.97 V, sheath gas flow rate 39.99 (arbitrary units), auxiliary gas flow 10 (arbitrary units), sweep gas flow 0.95 (arbitrary units), capillary temperature 219.96°C, and tube lens voltage 250.43 V. MS/MS spectra, obtained by CID (collision-induced dissociation) in the linear ion trap, were performed with an isolation width 3Da (m/z); the activation amplitude was 35% of ejection RF amplitude that corresponds to 1.58 V.
The experimental retention times of the peptides (tR exp) were determined at peak intensity maximum. The m/z values measured manually for the most intense peaks in acquired MS/MS spectra were automatically searched against the protein database (*fasta) using the Sequest Algorithm, incorporated into Bioworks 3.0 (Thermo Finningan, San Jose, CA, USA). The *fasta format for each protein was downloaded from Expasy (http://www.expasy.org/sprot/).
For “AAFTECCQAADK [model peptide from tryptic digest of model protein 6]”, the tR exp was 19.31 min.
“CCAAADPHECYAK [model peptide from tryptic digest of model protein 6]” gave a tR exp of 16.98 min.
Substance “HIIVACEGNPYVPVHFDASV [model peptide from tryptic digest of model protein 7]” has a tR exp of 32.15 min.
Work on “NECFLQHK [model peptide from tryptic digest of model protein 6]” yielded a tR exp of 19.67 min.
“QHMDSSTSAASSSNYCNQMMK [model peptide from tryptic digest of model protein 7]” gave a tR exp of 20.46 min.
Work on “TCVADESAENCDK [model peptide from tryptic digest of model protein 6]” yielded a tR exp of 15.32 min.
Substance “VHTECCHGDLLECADDR [model peptide from tryptic digest of model protein 6]” has a tR exp of 22.86 min.
Work on “VHTECCHGDLLECADDRADLAK [model peptide from tryptic digest of model protein 6]” yielded a tR exp of 24.98 min.
Substance “YICENQDSISSK [model peptide from tryptic digest of model protein 6]” has a tR exp of 18.06 min.
With “YPNCAYK [model peptide from tryptic digest of model protein 7]” the tR exp was 16.78 min.

Same assay, conditions: Table 2, test peptides from model proteins; gradient RP-LC, XTerra MS C18, 0-60% ACN with 0.1% TFA in 90 min, 200 μL/min, 20°C, ESI-MS/MS
In the case of “ETCFAEEGKK [test peptide from tryptic digest of model protein 6]”, the tR exp is reported as 16.58 min.
In the case of “NVACK [test peptide from tryptic digest of model protein 7]”, the tR exp is reported as 8.38 min.

Same assay, conditions: Table 5, Bacillus subtilis proteome peptides, one peptide, Xcorr below 1.5; gradient RP-LC, XTerra MS C18, 0-60% ACN with 0.1% TFA in 90 min, 200 μL/min, 20°C, ESI-MS/MS
Substance AQLSEKKGADGYL has a tR exp of 26.46 min.
With DGITDVL the tR exp was 93.5 min.
DGWKVCLGKVGSMDAHKVVAAIETASKKSG showed a tR exp of 37.72 min.
ELSASMG gave a tR exp of 18.33 min.
In the case of EPIQSFFQID, the tR exp is reported as 51.92 min.
GIIAAYG showed a tR exp of 89.29 min.
For GQEQLIPPLIL, the tR exp was 81.34 min.
Work on HGGSLSAPAIH yielded a tR exp of 97.03 min.
IDFPTNITMD showed a tR exp of 96.80 min.
Work on IGLLIFLP yielded a tR exp of 93.97 min.
Work on IHTLEHLLAFTI yielded a tR exp of 81.04 min.
For KIDKSIFPGIQGGPLMH, the tR exp was 12.03 min.
For LAAGISTI, the tR exp was 92.62 min.
In the case of LTELQVRHII, the tR exp is reported as 48.06 min.
For NRAVGFISFVI, the tR exp was 58.59 min.
PIITVAKEAWPTL showed a tR exp of 83.17 min.
Substance PQTPVP has a tR exp of 80.37 min.
TGALIVYTSADSVLQIAAHEEVVPLEE gave a tR exp of 52.12 min.

Same assay, conditions: experimental gradient HPLC retention time (LC-ESI-MS/MS); Table 4 test peptides
In the case of AAEMAVARQNEQKVKK, the tR exp is reported as 29.44 min.
Substance DIMSPSR has a tR exp of 14.30 min.
DRVFIAPVGGGPR showed a tR exp of 29.82 min.
Work on EAEELIPNVTTAAVK yielded a tR exp of 29.18 min.
EGTVIKELIGAGQLDEK showed a tR exp of 29.49 min.
Substance ELQEKFLIPAVEQKK has a tR exp of 29.27 min.
Substance EVMIEGVLSVLEGQAPK has a tR exp of 29.51 min.
Work on GHNPGQPEPLSGSK yielded a tR exp of 17.05 min.
GNQVSENLQQAAR showed a tR exp of 20.52 min.
With HSSDEEPFSALAFK the tR exp was 33.16 min.
With IDIALESKK the tR exp was 18.04 min.
IDNLSYYIEQEYK showed a tR exp of 30.89 min.
For INIMSAR, the tR exp was 14.23 min.
For LALDLESKK, the tR exp was 18.01 min.
Work on LEIASEFGVNLGADTTSR yielded a tR exp of 33.12 min.
Substance LIDKHKKYVYHRINK has a tR exp of 29.00 min.
With LNSLDSR the tR exp was 14.29 min.
In the case of NIAEMVK, the tR exp is reported as 14.25 min.
For NLLFAAR, the tR exp was 14.27 min.
For QDIPIEARMNEIVHSLK, the tR exp was 29.33 min.
SGETEDSTIADIAVATNAGQIK gave a tR exp of 30.05 min.
In the case of SGSIESIDVSLTDLR, the tR exp is reported as 33.05 min.
SHTGKAAVLNR showed a tR exp of 24.54 min.
With VVVSVNTDQDQAQAQSQDGED the tR exp was 19.37 min.
